Measured values from PubChem BioAssay AID1259407 (Chemical Carcinogenesis Research Information System (CCRIS), 2018).
Activity calls are given as the source filed them. How the calls were made is not given here.

System: CCRIS mutagenicity, Ames/micronucleus/aberration tests
Experiment: CCRIS mutagenicity studies
[1] = Test System: AMES SALMONELLA TYPHIMURIUM, Strain/Indicator: TA98, Metabolic Activation: NONE, Method: STANDARD PLATE
[2] = Test System: AMES SALMONELLA TYPHIMURIUM, Strain/Indicator: TA100, Metabolic Activation: RAT, LIVER, S-9, AROCLOR 1254, Method: PREINCUBATION

Q: How did the mutagenic call [1] turn out when `Nc1cccc2c(N)cccc12` was run?
A: Its mutagenic call is “inactive; negative”.

Q: What about the mutagenic call (Test System: AMES SALMONELLA TYPHIMURIUM, Strain/Indicator: TA98, Metabolic Activation: RAT, LIVER, S-9, Method: STANDARD PLATE) of the same compound?
A: The mutagenic call was “inactive; negative”.

Q: And the mutagenic call (Test System: AMES SALMONELLA TYPHIMURIUM, Strain/Indicator: TA1535, Metabolic Activation: HAMSTER, LIVER, S-9, AROCLOR 1254, Method: STANDARD PLATE)?
A: Its mutagenic call is “inactive; negative”.

Q: And the mutagenic call (Test System: AMES SALMONELLA TYPHIMURIUM, Strain/Indicator: TA1535, Metabolic Activation: HAMSTER, LIVER, S-9, Method: STANDARD PLATE)?
A: Its mutagenic call is “inactive; negative”.

Q: What about the mutagenic call (Test System: AMES SALMONELLA TYPHIMURIUM, Strain/Indicator: TA1535, Metabolic Activation: MOUSE, LIVER, S-9, AROCLOR 1254, Method: STANDARD PLATE) of the same compound?
A: Its mutagenic call is “inactive; negative”.

Q: What about the mutagenic call (Test System: AMES SALMONELLA TYPHIMURIUM, Strain/Indicator: TA1535, Metabolic Activation: MOUSE, LIVER, S-9, Method: STANDARD PLATE) of the same compound?
A: Its mutagenic call is “inactive; negative”.

Q: And the mutagenic call (Test System: AMES SALMONELLA TYPHIMURIUM, Strain/Indicator: TA1535, Metabolic Activation: NONE, Method: STANDARD PLATE)?
A: The mutagenic call was “inactive; negative”.

Q: And the mutagenic call (Test System: AMES SALMONELLA TYPHIMURIUM, Strain/Indicator: TA1535, Metabolic Activation: RAT, LIVER, S-9, AROCLOR 1254, Method: STANDARD PLATE)?
A: Its mutagenic call is “inactive; negative”.

Q: What about the mutagenic call (Test System: AMES SALMONELLA TYPHIMURIUM, Strain/Indicator: TA1535, Metabolic Activation: RAT, LIVER, S-9, Method: STANDARD PLATE) of the same compound?
A: The mutagenic call was “inactive; negative”.

Q: And the mutagenic call (Test System: AMES SALMONELLA TYPHIMURIUM, Strain/Indicator: TA1537, Metabolic Activation: HAMSTER, LIVER, S-9, AROCLOR 1254, Method: STANDARD PLATE)?
A: Its mutagenic call is “active; positive”.

Q: And the mutagenic call (Test System: AMES SALMONELLA TYPHIMURIUM, Strain/Indicator: TA1537, Metabolic Activation: MOUSE, LIVER, S-9, Method: STANDARD PLATE)?
A: The mutagenic call was “inactive; negative”.

Q: What about the mutagenic call (Test System: AMES SALMONELLA TYPHIMURIUM, Strain/Indicator: TA1537, Metabolic Activation: RAT, LIVER, S-9, Method: STANDARD PLATE) of the same compound?
A: Its mutagenic call is “inactive; negative”.

Q: And the mutagenic call (Test System: AMES SALMONELLA TYPHIMURIUM, Strain/Indicator: TA1538, Metabolic Activation: MOUSE, LIVER, S-9, AROCLOR 1254, Method: STANDARD PLATE)?
A: Its mutagenic call is “inactive; negative”.

Q: And the mutagenic call (Test System: AMES SALMONELLA TYPHIMURIUM, Strain/Indicator: TA1538, Metabolic Activation: MOUSE, LIVER, S-9, Method: STANDARD PLATE)?
A: The mutagenic call was “inactive; negative”.

Q: What about the mutagenic call (Test System: AMES SALMONELLA TYPHIMURIUM, Strain/Indicator: TA1538, Metabolic Activation: NONE, Method: STANDARD PLATE) of the same compound?
A: Its mutagenic call is “inactive; negative”.

Q: What about the mutagenic call (Test System: AMES SALMONELLA TYPHIMURIUM, Strain/Indicator: TA1538, Metabolic Activation: RAT, LIVER, S-9, Method: STANDARD PLATE) of the same compound?
A: Its mutagenic call is “inactive; negative”.

Q: What about the mutagenic call (Test System: E. COLI, Strain/Indicator: WP2 UVRA, Metabolic Activation: HAMSTER, LIVER, S-9, AROCLOR 1254, Method: STANDARD PLATE) of the same compound?
A: The mutagenic call was “inactive; negative”.

Q: And the mutagenic call (Test System: E. COLI, Strain/Indicator: WP2 UVRA, Metabolic Activation: HAMSTER, LIVER, S-9, Method: STANDARD PLATE)?
A: Its mutagenic call is “inactive; negative”.

Q: What about the mutagenic call (Test System: E. COLI, Strain/Indicator: WP2 UVRA, Metabolic Activation: MOUSE, LIVER, S-9, AROCLOR 1254, Method: STANDARD PLATE) of the same compound?
A: The mutagenic call was “inactive; negative”.

Q: What about the mutagenic call (Test System: E. COLI, Strain/Indicator: WP2 UVRA, Metabolic Activation: MOUSE, LIVER, S-9, Method: STANDARD PLATE) of the same compound?
A: The mutagenic call was “inactive; negative”.

Q: And the mutagenic call (Test System: E. COLI, Strain/Indicator: WP2 UVRA, Metabolic Activation: NONE, Method: STANDARD PLATE)?
A: Its mutagenic call is “inactive; negative”.

Q: And the mutagenic call (Test System: E. COLI, Strain/Indicator: WP2 UVRA, Metabolic Activation: RAT, LIVER, S-9, AROCLOR 1254, Method: STANDARD PLATE)?
A: The mutagenic call was “inactive; negative”.

Q: What about the mutagenic call (Test System: E. COLI, Strain/Indicator: WP2 UVRA, Metabolic Activation: RAT, LIVER, S-9, Method: STANDARD PLATE) of the same compound?
A: The mutagenic call was “inactive; negative”.

Q: Which mutagenic call [2] does the source give for `Oc1ccc2c3ccccc3c3cc4ccccc4cc3c2c1` here?
A: Its mutagenic call is “active; positive”.

Q: For `COC1=C(OC)C(=O)C(C/C=C(\C)CC/C=C(\C)CC/C=C(\C)CC/C=C(\C)CC/C=C(\C)CC/C=C(\C)CC/C=C(\C)CC/C=C(\C)CC/C=C(\C)CCC=C(C)C)=C(C)C1=O`, which mutagenic call (Test System: AMES SALMONELLA TYPHIMURIUM, Strain/Indicator: TA98, Metabolic Activation: NONE, Method: PREINCUBATION) is on record?
A: The mutagenic call was “inactive; negative”.

Q: And the mutagenic call (Test System: AMES SALMONELLA TYPHIMURIUM, Strain/Indicator: TA98, Metabolic Activation: RAT, LIVER, S-9, PHENOBARBITAL AND 5,6-BENZOFLAVONE, Method: PREINCUBATION)?
A: Its mutagenic call is “inactive; negative”.

Q: And the mutagenic call (Test System: AMES SALMONELLA TYPHIMURIUM, Strain/Indicator: TA100, Metabolic Activation: NONE, Method: PREINCUBATION)?
A: The mutagenic call was “inactive; negative”.

Q: And the mutagenic call (Test System: AMES SALMONELLA TYPHIMURIUM, Strain/Indicator: TA100, Metabolic Activation: RAT, LIVER, S-9, PHENOBARBITAL AND 5,6-BENZOFLAVONE, Method: PREINCUBATION)?
A: The mutagenic call was “inactive; negative”.

Q: And the mutagenic call (Test System: AMES SALMONELLA TYPHIMURIUM, Strain/Indicator: TA1535, Metabolic Activation: NONE, Method: PREINCUBATION)?
A: The mutagenic call was “inactive; negative”.

Q: What about the mutagenic call (Test System: AMES SALMONELLA TYPHIMURIUM, Strain/Indicator: TA1535, Metabolic Activation: RAT, LIVER, S-9, PHENOBARBITAL AND 5,6-BENZOFLAVONE, Method: PREINCUBATION) of the same compound?
A: Its mutagenic call is “inactive; negative”.

Q: And the mutagenic call (Test System: AMES SALMONELLA TYPHIMURIUM, Strain/Indicator: TA1537, Metabolic Activation: NONE, Method: PREINCUBATION)?
A: The mutagenic call was “inactive; negative”.

Q: What about the mutagenic call (Test System: AMES SALMONELLA TYPHIMURIUM, Strain/Indicator: TA1537, Metabolic Activation: RAT, LIVER, S-9, PHENOBARBITAL AND 5,6-BENZOFLAVONE, Method: PREINCUBATION) of the same compound?
A: Its mutagenic call is “inactive; negative”.

Q: And the mutagenic call (Test System: E. COLI, Strain/Indicator: WP2UVRA, Metabolic Activation: NONE, Method: PREINCUBATION)?
A: Its mutagenic call is “inactive; negative”.

Q: And the mutagenic call (Test System: E. COLI, Strain/Indicator: WP2UVRA, Metabolic Activation: RAT, LIVER, S-9, PHENOBARBITAL AND 5,6-BENZOFLAVONE, Method: PREINCUBATION)?
A: Its mutagenic call is “inactive; negative”.

Q: For `C/C=C/C`, which mutagenic call (Test System: AMES SALMONELLA TYPHIMURIUM, Strain/Indicator: TA98, Metabolic Activation: NONE, Method: GAS EXPOSURE) is on record?
A: Its mutagenic call is “inactive; negative”.

Q: And the mutagenic call (Test System: AMES SALMONELLA TYPHIMURIUM, Strain/Indicator: TA98, Metabolic Activation: RAT LIVER S-9, PHENOBARBITAL AND BETA-NAPHTHOFLAVONE (40%), Method: GAS EXPOSURE)?
A: The mutagenic call was “inactive; negative”.

Q: And the mutagenic call (Test System: AMES SALMONELLA TYPHIMURIUM, Strain/Indicator: TA100, Metabolic Activation: NONE, Method: GAS EXPOSURE)?
A: The mutagenic call was “inactive; negative”.

Q: And the mutagenic call (Test System: AMES SALMONELLA TYPHIMURIUM, Strain/Indicator: TA100, Metabolic Activation: RAT LIVER S-9, PHENOBARBITAL AND BETA-NAPHTHOFLAVONE (40%), Method: GAS EXPOSURE)?
A: Its mutagenic call is “inactive; negative”.

Q: What about the mutagenic call (Test System: AMES SALMONELLA TYPHIMURIUM, Strain/Indicator: TA1535, Metabolic Activation: NONE, Method: GAS EXPOSURE) of the same compound?
A: The mutagenic call was “inactive; negative”.

Q: What about the mutagenic call (Test System: AMES SALMONELLA TYPHIMURIUM, Strain/Indicator: TA1535, Metabolic Activation: RAT LIVER S-9, PHENOBARBITAL AND BETA-NAPHTHOFLAVONE (40%), Method: GAS EXPOSURE) of the same compound?
A: Its mutagenic call is “inactive; negative”.

Q: What about the mutagenic call (Test System: AMES SALMONELLA TYPHIMURIUM, Strain/Indicator: TA1537, Metabolic Activation: NONE, Method: GAS EXPOSURE) of the same compound?
A: Its mutagenic call is “inactive; negative”.

Q: What about the mutagenic call (Test System: AMES SALMONELLA TYPHIMURIUM, Strain/Indicator: TA1537, Metabolic Activation: RAT LIVER S-9, PHENOBARBITAL AND BETA-NAPHTHOFLAVONE (40%), Method: GAS EXPOSURE) of the same compound?
A: Its mutagenic call is “inactive; negative”.

Q: What about the mutagenic call (Test System: E.COLI, Strain/Indicator: WP2UVRA, Metabolic Activation: NONE, Method: GAS EXPOSURE) of the same compound?
A: The mutagenic call was “inactive; negative”.

Q: What about the mutagenic call (Test System: E.COLI, Strain/Indicator: WP2UVRA, Metabolic Activation: RAT LIVER S-9, PHENOBARBITAL AND BETA-NAPHTHOFLAVONE (40%), Method: GAS EXPOSURE) of the same compound?
A: The mutagenic call was “inactive; negative”.

Q: Which results are given for `Cn1c(N)nc2ccccc21`?
A: mutagenic call (Test System: AMES SALMONELLA TYPHIMURIUM, Strain/Indicator: TA98, Metabolic Activation: RAT, LIVER, S-9, AROCLOR 1254, Method: PREINCUBATION): active; positive; mutagenic call [2]: active; positive

Q: `Clc1cccc2oc3ccccc3c12` was tested. Which mutagenic call [1] did it give?
A: The mutagenic call was “inactive; negative”.

Q: What about the mutagenic call (Test System: AMES SALMONELLA TYPHIMURIUM, Strain/Indicator: TA98, Metabolic Activation: RAT, LIVER, S-9, PHENOBARBITAL AND NAPHTHOFLAVONE, Method: STANDARD PLATE) of the same compound?
A: The mutagenic call was “inactive; negative”.

Q: And the mutagenic call (Test System: AMES SALMONELLA TYPHIMURIUM, Strain/Indicator: TA100, Metabolic Activation: NONE, Method: STANDARD PLATE)?
A: Its mutagenic call is “inactive; negative”.

Q: And the mutagenic call (Test System: AMES SALMONELLA TYPHIMURIUM, Strain/Indicator: TA100, Metabolic Activation: RAT, LIVER, S-9, PHENOBARBITAL AND NAPHTHOFLAVONE, Method: STANDARD PLATE)?
A: Its mutagenic call is “inactive; negative”.

Q: Which mutagenic call (Test System: UDS HUMAN FIBROBLASTS, Strain/Indicator: THY INCORP (NON-S-PHASE), Metabolic Activation: NONE, Method: AUTORADIOGRAPHY) does the source give for `CCCCCCCCCCCCCC(=O)ON(C(C)=O)c1ccc2c(c1)Cc1ccccc1-2` here?
A: The mutagenic call was “active; positive”.
